From patent publication US20110065202A1, “Method for Examination of Alzheimer's Disease” (EISAI R&D MANAGEMENT CO., LTD., priority 2008, published 2011)
Values joined by “and” are separate entries in the source; they are usually repeats but may differ in a detail not shown here. Equal values may be shown once.

Experiment: LC/MS measurement of lidocaine and its metabolite MEGX in cerebrospinal fluid of lidocaine-administered subjects
Type: in vivo, human
Details: for Lidocaine peak ratio to lysine / Lidocaine peak ratio to lysine, average: cerebrospinal fluid; for Lidocaine peak ratio to lysine: individual samples, lidocaine hydrochloride standard dose 200 mg at the puncture site, LC/MS; for concentration detected in cerebrospinal fluid, AD patients versus healthy subjects: cerebrospinal fluids, result in words
Procedure: Cerebrospinal fluids of 17 Alzheimer's disease patients (10 male and 7 female Caucasions) and 17 healthy subjects of similar age, sex and race were used as samples. The samples were collected under epidural anesthesia with lidocaine (lidocaine hydrochloride (standard dose: 200 mg) was hypodermically administered at the puncture site). Protein components were removed from 150 microliters of each cerebrospinal fluid by using an ultrafiltration filter of 5000 NMWL (Ultrafree-MC BIOMAX-5, UFC3BCC00, produced by Millipore). To the cerebrospinal fluid, 25 microliters of a solution containing L-Valine-^13C5, ^15N or L-Lysine-^13C5, ^15N as an internal standard substance (0.1% formic acid, 50% methanol solvent) and 800 microliters of a 0.15% hydrochloric acid solution were added. This sample solution was applied to a solid phase extraction column, Oasis MCX (10 mg), produced by Waters. Washing was performed with 1 mL of water first, then with 1 mL of 50% methanol solvent containing 0.1% formic acid, subsequently with 1 mL of water, and with 1 mL of methanol. Then, elution was performed with 1 mL of a mixture of 25% aqueous ammonia and methanol (2:3, v/v), the eluate was dried, the residue was dissolved again in 25 microliters of 50% methanol, and insoluble substances were removed by using a PVDF membrane filter having a pore size of 0.22 micrometer to prepare a sample for LC/MS.
As for the material packed in the LC column, Primesep A resin (particle size: 5 micrometers, pore size: 100 angstroms) of SIELC Technologies (Prospect Heights, Ill.) was packed in a fused silica capillary having an internal diameter of 150 micrometers (internal surface was treated with TC-WAX, produced by GL Sciences, catalog number: 1010-27012) of which tip was tapered to a diameter of about 8 micrometers beforehand with a laser-based puller P-2000 (produced by Sutter) at a height of about 15 cm under a nitrogen gas pressure of about 7 MPa, and this was used as a column. 50% Methanol containing 0.1% formic acid was used as a mobile phase A, and 90% methanol containing 2% trifluoroacetic acid in addition to 0.1% formic acid was used as a mobile phase B. The concentration gradient of the mobile phase B was, from the start of elution, as follows: 0 minute (0%)-5 minutes (0%)-25 minutes (25%)-25.1 minutes (50%)-50 minutes (100%)-60 minutes (100%), and the flow rate was 1 microliter per minute. Since valine as the internal standard substance was eluted in a period of 5 to 25 minutes, and lysine as the internal standard substance was eluted in a period of 25 to 50 minutes, either one of the internal standard substances was appropriately used for quantification of each substance depending on the elution time. Qstar Pulsar i produced by Applied Biosystems was used in the cation detection mode as the mass spectrometer with an applied voltage of 2400 volts at a DP value of 10 and an IP value of 100 for improving the sensitivity to perform the measurement for the scanning range of 50 to 700 amu.
Further, by the MS/MS measurement, m/z 86.08 and m/z 58.06 were obtained from the former and the latter, respectively, as the product ions. The former was estimated to be that of lidocaine, and the latter was estimated to be that of MEGX, which is a metabolite of lidocaine. Therefore, specimens of these substances were obtained, and measured under the same LC/MS conditions. As a result, the same retention times and mass spectra were obtained, and thus it was confirmed that these peaks were those of lidocaine and MEXG.

CCN(CC)CC(=O)Nc1c(C)cccc1C [Lidocaine, lidocaine]
Lidocaine peak ratio to lysine (AD patient): 0.842 and 0.040 and 0.059 and 0.035 and 0.396 and 0.030 and 0.000 (2×) and 0.086 and 0.061 and 0.055 and 0.107 and 0.745 and 0.021 and 0.143 and 0.015 and 0.277
Lidocaine peak ratio to lysine, average (average of 17 AD patients): 0.2
Lidocaine peak ratio to lysine, average (average of 17 healthy controls): 1.427
Lidocaine peak ratio to lysine (healthy control): 1.40 and 0.83 and 2.29 and 1.20 and 1.72 and 2.84 and 1.53 and 0.96 and 0.91 and 1.79 and 1.50 and 0.72 and 1.09 and 1.31 and 0.98 and 0.67 and 2.54
concentration detected in cerebrospinal fluid, AD patients versus healthy subjects: AD patient-specific low concentrations

CCNCC(=O)Nc1c(C)cccc1C [MEGX, monoethylglycinexylidide]
concentration detected in cerebrospinal fluid, AD patients versus healthy subjects: AD patient-specific low concentrations
